Source: patent publication US11933781B2, “Fibrosis model and methods of use thereof” (The Regents of the University of Colorado, priority 2020, dated 2024)
Entries after “also recorded” stand apart in the source; their conditions may differ.

Columns and labels:
Type in all cases: cell-based, human
COPD HBECs = assay: Induction of jamming in COPD HBECs
Text: (§1) Epithelial Cell Culture: Primary human bronchial epithelial cells (HBECs) were obtained from two sources (1) provided by Dr. Hong Wei Chu at National Jewish Health, or (2) lung transplant collection at the University of Colorado Hospital (IRB protocol: 11-1664 or 18-0572). Epithelial cells from bronchial brushes or CT-guided dissection were expanded to passage 2 before being cultured at air liquid interface (ALI). Control (N=11), IPF (N=6), and COPD (N=3) were age matched and controls had no history of chronic lung disease (Table 1). Cells were seeded on 24-Transwell plates (Corning, Corning, New York, 3470) coated with type I collagen (Corning, Corning, New York, 354236) and maintained under submerged conditions for five to seven days until the cells reached confluence. Culture media was a 1:1 mixture of DMEM and BEBM (Lonza, Basel, Switzerland, CC170) supplemented with retinoic acid (Sigma-Aldrich, Germany, R-2625) nystatin (Sigma-Aldrich, Germany N1638), and bovine serum albumin (FisherSci, Thermo Fisher Scientific, Waltham, Massachusetts BP9703100). Once confluent, apical media was removed and maintained at ALI. HBECs began recapitulating the in vivo airway, with production of mucus (6-9 days after establishing ALI) and development of a pseudostratified epithelium. Cells were switched to a starvation media (lacking supplemental epidermal growth factor, hydrocortisone, and bovine pituitary extract) 24 hours prior to experimentation.
For inhibitor, activator, and ligand treatments HBECs were cultured in a starvation media in the absence of EGF, hydrocortisone, and bovine pituitary extract for 24 hours prior to treatment initiation. Cells were then treated for 2-4 hours (with exception of AREG neutralizing antibody which was maintained in the culture media), media was aspirated, the wells were washed with warm PBS and then replaced with fresh starvation media without inhibitor/activator/ligand present, and subsequently imaged. For experiments that required subsequent media changes (96 hour) cells fresh starvation media was changed 48 hours afterwards. […]

IPF HBECs [1] = assay: Gene expression of ERBB receptors, YAP target genes and MUC5B in IPF HBECs; settings: IPF HBECs after inhibition
Experimental: Quantitative RT-PCR Analysis: Total RNA was extracted using RNeasy® Mini kit (Qiagen, Hilden, Germany) and quantified by NanoDrop™ (ThermoFisher Scientific™, Waltham, Massachusetts).Reverse transcription was completed using the High Capacity cDNA Reverse Transcription Kit (Applied Biosystems™, Thermo Fisher Scientific™, Waltham, Massachusetts). Gene expression was analyzed by using TaqMan® Advanced Master Mix (Thermo Fisher Scientific™, Waltham, Massachusetts and TaqMan® assays. They were subsequently run in triplicate on the ViiA™ 7 Real-Time machine (Thermo Fisher Scientific™, Waltham, Massachusetts). Primer IDs were: β-ACTIN, Hs01060665_g1; MUC5B, Hs00861595_m1; MUC5AC, Hs01365616_m1; EGFR, Hs0176090_m1; ERBB2, Hs01001580_m1; ZEB1, Hs00232783_m1; SNAI1, Hs00195591_m1; VIM, Hs00185584_m1; CTGF, Hs00170014_m1; AREG, Hs00950669_m1; FN1, Hs01549976_m1; PDGFRA, Hs00998018_m1; PDGFA, Hs00234994_m1; PDGFRB, Hs01019589_m1; PDGFB, Hs00966522_m1; TGFBRI, Hs00610320_m1; TGFBI, Hs00998133_m1; COL1A1, Hs00164004_m1; ACTA2, Hs00426835; MMP3, Hs00968305_m1; MMP9, Hs00957562_m1; TIMP1, Hs01092512_g1; and TIMP2, Hs00234278_m1.

IPF HBECs [2] = assay: Induction of the unjammed-to-jammed transition (UJT) in IPF HBECs; settings: day 14 IPF HBECs
Text: as §1
For inhibitor, activator, and ligand treatments HBECs were cultured in a starvation media in the absence of EGF, hydrocortisone, and bovine pituitary extract for 24 hours prior to treatment initiation. Cells were then treated for 2-4 hours (with exception of AREG neutralizing antibody which was maintained in the culture media), media was aspirated, the wells were washed with warm PBS and then replaced with fresh starvation media without inhibitor/activator/ligand present, and subsequently imaged. For experiments that required subsequent media changes (96 hour) cells fresh starvation media was changed 48 hours afterwards.
(§2) Live Cell Imaging and Dynamics Measurement: To assess cellular dynamics, time-lapse microscopy and subsequent analysis were completed. Two imaging schemes were utilized: (1) images were taken every 5 minutes for 200 minutes during HBEC differentiation; (2) images were taken every 20 minutes for 48, 96, or 144 hours after HBEC experimental intervention. Phase contrast images were acquired on a Keyence BZ-X810 with a stage incubator (37° C., 5% CO2). Dynamic analysis followed previously published workflows (10-12, 22). Briefly, using phase contrast images instantaneous velocities were mapped by particle image velocimetry utilizing open source PIVLab on MATLAB. Velocity fields were obtained with 2 passes (64×64 and 32×32 pixel size interrogation window with 50% overlap) with a pixel size of 0.75488 μm using a Fast Fourier Transformation method. Trajectories from the PIV were seeded onto a grid and obtained via forward-integration of subsequent fields. These values were then used to determine mean-squared-displacement (MSD) and self-overlap order parameter (Q): MSD(Δt)= ? ri(t+Δt)−ri(t)|2 ? and Q(Δt)=N−1ΣwiNi=1 as previously published. Instantaneous room mean squared velocity (VRMS) of the monolayer was obtained as previously published: VRMS(t)=√1MΣ ? |v(t)2 ? jMj=1
Cell Shape Analysis: Cell shape measurements were achieved via cell border delineation by F-actin immunofluorescence. Images were segmented utilizing SeedWater Segmenter. Similar to previously published workflows, we segmented images which were subsequently analyzed in ImageJ for the shape index (q=Perimeter√Area) and aspect ratio (major and minor axis) for all cells within a given field of view. For each experimental condition an n≥3 was used with at least 3 independent wells per donor per treatment condition. […]

IPF HBECs [3] = assay: YAP immunofluorescence in IPF HBECs; settings: IPF HBECs 48 hours after treatment
Experimental: Immunofluorescence staining: Cells were fixed with 4% paraformaldehyde in PBS with calcium and magnesium for 30 minutes at room temperature. Cells were then washed with PBS and subsequently permeabilized (Triton™-X, at 0.1%) and blocked with 5% bovine serum albumin in PBS for 1 hour at room temperature. Cells were then incubated for >16 hours at 4 degrees with primary antibodies. Primary antibodies were aspirated, and cells were washed with PBS+0.1% Tween-20 at room temperature. Cells were then incubated for 1 hour at room temperature with secondary antibodies (1:500) and/or Phalloidin-iFluor™ 488 1:2000. Cells were stained with 4′,6-diamidino-2-phenylindole at 1:20000 (BioLegend®, San Diego, California, 422801). Subsequently, transwell membranes, or hydrogels, were removed from the well and mounted on glass slides with Fluoromount-G® (SouthernBiotech™, Birmingham, Alabama, 0100-01). Slides were then visualized using an Olympus BX63 microscope (Olympus, Tokyo, Japan).
Immunofluorescence and cell number quantification for HBEC experiments: For total fluorescence quantification (i.e., ERBB2), all images were processed in the same manner with the same microscopy settings. To determine mean fluorescence the channel of interest was separated in ImageJ, and the mean gray value was measured for the field of view and normalized by the total number of cells. Cell counting was achieved by taking 40×images and manually counting all nuclei in a field of view (approximately 200-300). The number of cells also expressing the marker of interested were then counted and normalized by the total number of cells per field. For each experiment a biological n≥3 was used with at least 5 fields of view per well and at least 2 wells being counted in total per donor.

[4] = system: proximal, jammed cultures; assay: IL-6 family cytokine induced unjamming of proximal airway epithelial cultures; settings: proximal cultures pre-treated, then stimulated with IL-6 family cytokines
Experimental: as §2, with “These values were then used to determine mean-squared-displacement (MSD) and self-overlap order parameter (Q): MSD(Δt)= ? ri(t+Δt)−ri(t)|2 ? and Q(Δt)=N−1ΣwiNi=1 as previously published. Instantaneous room mean squared velocity (VRMS) of the monolayer was obtained as previously published: VRMS(t)=√1MΣ ? |v(t)2 ? jMj=1” left out
Cell Shape Analysis: Cell shape measurements were achieved via cell border delineation by F-actin immunofluorescence. […] Similar to previously published workflows, we segmented images which were subsequently analyzed in ImageJ for the shape index (q=Perimeter√Area) and aspect ratio (major and minor axis) for all cells within a given field of view. […]

Substance: Verteporfin
- induction of jamming in COPD epithelia (COPD HBECs): not responsive to ERBB-YAP inhibition
- transcription of ERBB receptors, YAP target genes and MUC5B (IPF HBECs [1]): reduced the transcription of ERBB receptors, YAP target genes, and MUC5B nearly back to control levels; also recorded: decreases 738 ERBB-YAP target gene expression
- induction of the UJT (jamming) in IPF epithelia (IPF HBECs [2]): halted migration and induced a cobblestone appearance in the epithelia
- YAP nuclear exclusion (IPF HBECs [3]): results in YAP nuclear exclusion
- effect of inhibitor pre-treatment on IL-6 family cytokine induced unjamming [4]: SRC and YAP were essential for the acquisition of this fluid-like phenotype
